Laboratory results from US20130011376A1, “Methods for Enhancing Natural Killer Cell Proliferation and Activity” (GAMIDA CELL LTD., priority 2009, published 2013).
Like-named read-outs stand apart in the source and are kept apart here.

How the values were obtained:
[1] = tested on: purified cord-blood derived CD56+ cells; experiment: Inhibitory CD56+NKG2A cell fraction in cultured cord blood CD56+ cells (FACS); format: cell-based, human; conditions: 1, 2.5 and 5 mM nicotinamide, 3 weeks culture
Method: 2. Purified CD56+ or CD56+CD3− cells from total nuclear or mononuclear cells or from the fraction depleted from CD34+ or CD133+ cells were cultured in culture bags, T-Flasks or 24 well plates at a concentration of 1-100×10^4 cells/ml in MEMα/10% FCS or CellGro SCGM (Cell Genix)/5% Human Serum/LiforCell® FBS Replacement (Lifeblood Products) containing the following human recombinant cytokines:, interleukin-2 (IL-2) (5-50 ng/ml), interleukin-15 (IL-15), FLT-3 or SCF or FLT3 and SCF or IL-2 and IL-15 or IL-2 only (Perpo Tech, Inc., Rocky Hill, N.J., USA), with or without nicotinamide, and incubated at 37° C. in a humidified atmosphere of 5% CO2 in air. The cultures were topped up once or twice a week with the same volume of fresh medium containing growth factors with or without nicotinamide. […]
The cells were washed with a PBS solution containing 1% BSA, and stained (at 4° C. for 30 min) with fluorescein isothiocyanate (FITC)- or phycoerythrin (PE)-conjugated antibodies or allophycocyanin (APC). The cells were then washed in the above buffer and analyzed using a FACScalibur® flow cytometer (Becton Dickinson, San Jose, Calif., USA). […] Emission of 10^4 cells was measured using logarithmic amplification, and analyzed using the CellQuest software (Becton Dickinson). Cells stained with FITC, PE and APC-conjugated isotype control antibodies were used to determine background fluorescence. […]

[2] = tested on: BL2 target cells; format: cell-based; conditions: 2.5 mM or 5.0 mM nicotinamide for 3 weeks; E:T 1:1 to 10:1
Method: (§1) “Killing” assay: NK cells (effectors cells=E) are combined with K562 or BL2 (target cells=T), or bi-phenotypic leukemia cells at different E to T ratio (E:T). BL2 or K562, or bi-phenotypic leukemia target cells in PBS were labeled with 1 ng/ml CFSE (Invitrogen) for 15 min at 37° C. Calf Serum was added to the cells for 15 minutes, the cells were then washed and resuspended in RPMI medium. 100 μL of bi-phenotypic leukemia, BL2 or K562 cells were placed in a 96 round bottom plate at a concentration of 5×10^3 cells per well. 100 μL of non-stained NK cells were added to the bi-phenotypic leukemia, BL2 or K562 cells at a E:T ratio of 1:1, 2.5:1, 5:1, 10:1 or 20:1 (5×10^3, 1.25×10^4, 2.5×10^4, 5×10^4 and 1×10^5 cells/well, respectively, as indicated). Between 2-48 hours later. Killing of target cells in cell lines such as K562 and BL-2 was determined by FACS as a percentage propidium-iodine (PI)-positive (dead) CFSE-labeled cells. Killing of the primary leukemia cells was determined by counting with the FACS the number of CFSE stained cells that remained in the culture after their culture with the NK cells. A lower number of CFSE+ cells is indicative of higher level of killing.

[3] = tested on: K562 target cells; format: cell-based
Method: as §1

[4] = tested on: human primary bi-phenotypic leukemia cells; format: cell-based; conditions: after 24 hours, NK cells of 2 donors (Donor A and Donor B)
Method: as §1

Compound: NC(=O)c1cccnc1 [nicotinamide]
- prevalence of the inhibitory CD56+NKG2A cell fraction among NK cells [1]: significant and dose dependent reduction
- killing (cytotoxic) potential vs cells cultured in growth factors only [2]: far greater
- killing (cytotoxic) potential vs cells cultured in growth factors only ([3]; 2.5 mM or 5.0 mM nicotinamide for 3 weeks, E:T 1:1 to 10:1): far greater
- killing (cytotoxic) potential vs cells cultured in growth factors only ([3]; E:T ratios of 1:5, 1:10 and 1:20 NK cells per target): far greater
- cytotoxic potential of expanded NK cells [4]: increased activation of NK cells killing potential
